What was measured:
ArBNR3 = experiment: Luminescence (GFP-aequorin Ca2+) assay, CHO-K1 cells coexpressing ArBNR3 and Gqs5; type: cell-based, Asterias rubens; details: ArBNR3, words; up to 10^-5 M
Method: (§1) Having investigated relationships of eleven A. rubens BN-type receptor candidates (ArBNR1-11) with BN-type, ET-type, and CCHa/EP-type receptors in other taxa, ArBNR1 was identified as the best candidate and therefore this was selected for experimental testing. However, two other receptors (ArBNR2 and ArBNR3) were also tested. The methods employed for functional characterization of A. rubens neuropeptide receptors have been described previously ([57]) and a description of the methods employed in this study is included in SI Appendix, SI Methods. […]
(§2) Functional characterization of A. rubens BN-type receptors
(§3) Two cDNAs encoding ArBNR1 and ArBNR3 were cloned from A. rubens radial nerve cord cDNA using Q5 polymerase (NEB, Cat. no. M0491S) and PCR with specific primers (SI Appendix, Table S5). To facilitate expression of the cloned receptors, the forward primers were designed to contain a partial Kozak consensus sequence (ACC) before the ATG start codon. Then, PCR products were inserted into the mammalian expression vector pcDNA 3.1(+) (Invitrogen, Cat. no.
(§4) V79020) that had been cut in advance with the restriction enzyme EcoRV (NEB, Cat. no. […] Successful ligation and the direction of the insert was determined by restriction enzyme digestion and sequencing (TubeSeq service; Eurofins Genomics). […]
(§5) identical to residues 18 - 270 of the protein XP_033631283.1, which was determined from genome […]

ArBNR2 = experiment: Luminescence (GFP-aequorin Ca2+) assay, CHO-K1 cells coexpressing ArBNR2 and Gqs5; type: cell-based, Asterias rubens; details: ArBNR2, words; up to 10^-5 M
Method: as §1, §2, §3, §4, §5

| Substance | peptide-induced luminescence (ArBNR3) | peptide-induced luminescence (ArBNR2) |
| --- | --- | --- |
| NYNRVFGPTY-NH2 [ArBN5-14, C-terminally amidated 10-residue peptide corresponding to the C-terminal region of ArBN] | did not trigger luminescence | did not trigger luminescence |
| EPMPSSLALYIANLSP-NH2 [ArBNP65-81, C-terminally amidated 16-residue peptide predicted to be derived from residues 65 to 81 of ArBNP] | did not trigger luminescence | did not trigger luminescence |

Reference: publication PMC12002301, “Discovery and functional characterization of a bombesin-type neuropeptide signaling system in an invertebrate” (Proceedings of the National Academy of Sciences of the …, 2025)
